Measured values reported in ChEMBL document CHEMBL5505979, “Novel aminothiazoximone-corbelled ethoxycarbonylpyrimidones with antibiofilm activity to conquer Gram-negative bacteria through potential multitargeting effects” (Eur J Med Chem, 2024).
In brackets after ≈: the same amount, converted by molar mass. Activity calls are given as the source filed them. The rule behind the calls is not given here.

Columns and labels:
Klebsiella pneumoniae = assay: Anti-bacterial activity against Klebsiella pneumoniae KPN325 assessed as inhibition of bacterial growth; assay type: functional; conditions: Klebsiella pneumoniae, KPN325; read-out: MIC
Escherichia coli [1] = assay: Antibiofilm activity against Escherichia coli ATCC 25922 assessed as clearance rate of mature biofilm at 8 times of MIC concentration relative to control; assay type: functional
Candida albicans [2] = assay: Anti-fungal activity against Candida albicans 90023 assessed as inhibition of fungal growth; assay type: functional
Acinetobacter baumannii [3] = assay: Anti-bacterial activity against Acinetobacter baumannii assessed as growth inhibition by measuring optical density measured at 1/2 time of MIC in presence of 1/4 times of MIC of norfloxacin by Checkerboard assay (reference value: 0.152); assay type: functional
Escherichia coli [4] = assay: Anti-bacterial activity against Escherichia coli ATCC 25922 assessed at fractional inhibitory concentration index measured upto 9 hrs in presence of norfloxacin; assay type: functional
Acinetobacter baumannii [5] = assay: Reduction of biofilm virulent factors in Acinetobacter baumannii assessed as decrease in hydrophobicity index; assay type: functional, organism-based
Staphylococcus aureus [6] = assay: Anti-bacterial activity against Staphylococcus aureus ATCC 1708 assessed as inhibition of bacterial growth; assay type: functional; conditions: Staphylococcus aureus, ATCC 1708; read-out: MIC
Acinetobacter baumannii [7] = assay: Reduction of biofilm virulent factors in Acinetobacter baumannii assessed as decrease in extracellular polymeric substances (EPS) at 2 times of MIC concentration by congo red binding assay relative to control; assay type: functional; design: scale not given: the % may be the effect or the level left
Escherichia coli [8] = assay: Anti-bacterial activity against Escherichia coli ATCC 25922 assessed as growth inhibition by measuring optical density measured at 2 time of MIC in presence of 1 times of MIC of norfloxacin by Checkerboard assay (reference value: 0.128); assay type: functional
Escherichia coli [9] = assay: Anti-bacterial activity against Escherichia coli ATCC 25922 assessed as growth inhibition by measuring optical density measured at 1 time of MIC in presence of 1/8 times of MIC of norfloxacin by Checkerboard assay (reference value: 0.125); assay type: functional
Acinetobacter baumannii [10] = assay: Anti-bacterial activity against Acinetobacter baumannii assessed as growth inhibition by measuring optical density measured at 1/4 time of MIC in presence of 1/2 times of MIC of norfloxacin by Checkerboard assay (reference value: 0.152); assay type: functional
Acinetobacter baumannii [11] = assay: Antibiofilm activity against Acinetobacter baumannii assessed as inhibition rate of bio-film formation at 0.5 times of MIC concentration by Crystal violet assay relative to control; assay type: functional
Acinetobacter baumannii [12] = assay: Reduction of biofilm virulent factors in Acinetobacter baumannii assessed as decrease in extracellular polymeric substances (EPS) by measuring optical density at 490 nm at 4 times of MIC concentration by congo red binding assay (reference value: 0.188 to 0.192); assay type: functional
Escherichia coli [13] = assay: Anti-bacterial activity against Escherichia coli ATCC 25922 assessed as growth inhibition by measuring optical density measured at 1/2 time of MIC in presence of 2 times of MIC of norfloxacin by Checkerboard assay (reference value: 0.124); assay type: functional
Acinetobacter baumannii [14] = assay: Reduction of biofilm virulent factors in Acinetobacter baumannii assessed as decrease in extracellular polymeric substances (EPS) by measuring optical density at 490 nm at 1 times of MIC concentration by congo red binding assay (reference value: 0.188 to 0.192); assay type: functional
Escherichia coli [15] = assay: Induction of intracellular ROS accumulation in Escherichia coli ATCC 25922 assessed as larger green fluorescence densities at 1/4 to 2 times of MIC by microscopic imaging assay; assay type: functional, organism-based
[16] = Hemolysis in human RBC assessed as hemolysis rate at effective bactericidal concentration for 3 hrs; assay type: toxicity, cell-based, Erythrocyte; conditions: red blood cells, read-out: Activity
Acinetobacter baumannii [17] = assay: Anti-bacterial activity against Acinetobacter baumannii assessed as growth inhibition by measuring optical density measured at 1/4 time of MIC in presence of 2 times of MIC of norfloxacin by Checkerboard assay (reference value: 0.152); assay type: functional
Escherichia coli [18] = assay: Anti-bacterial activity against Escherichia coli ATCC 25922 assessed as growth inhibition by measuring optical density measured at 4 time of MIC in presence of 1 times of MIC of norfloxacin by Checkerboard assay (reference value: 0.125); assay type: functional
Candida albicans [19] = assay: Anti-fungal activity against Candida albicans assessed as inhibition of fungal growth; assay type: functional; conditions: Candida albicans; read-out: MIC
Acinetobacter baumannii [20] = assay: Anti-bacterial activity against Acinetobacter baumannii assessed as growth inhibition by measuring optical density measured at 1/2 time of MIC in presence of 1/8 times of MIC of norfloxacin by Checkerboard assay (reference value: 0.152); assay type: functional
Escherichia coli [21] = assay: Reduction of biofilm virulent factors in Escherichia coli ATCC 25922 assessed as decrease in extracellular polymeric substances (EPS) by measuring optical density at 490 nm at 1/4 times of MIC concentration by congo red binding assay (reference value: 0.028 to 0.031); assay type: functional
[22] = Hemolysis in human RBC assessed as hemolysis rate at 128 times of MIC concentration for 6 hrs; assay type: toxicity, cell-based, Erythrocyte; conditions: red blood cells, read-out: Activity
Pseudomonas aeruginosa = assay: Anti-bacterial activity against Pseudomonas aeruginosa CMCC (B) 10104 assessed as inhibition of bacterial growth; assay type: functional; conditions: Pseudomonas aeruginosa, CMCC (B) 10104; read-out: MIC
Cell membrane = assay: Induction of physical destruction of cell membrane in Acinetobacter baumannii assessed as leakage of protein at 1/4 to 8 times of MIC concentration by Coomassie blue quantitative assay; assay type: cell membranes
Acinetobacter baumannii [23] = assay: Anti-bacterial activity against Acinetobacter baumannii assessed as growth inhibition by measuring optical density measured at 2 time of MIC in presence of 1/8 times of MIC of norfloxacin by Checkerboard assay (reference value: 0.155); assay type: functional
Enterococcus faecalis = assay: Anti-bacterial activity against Enterococcus faecalis V583 assessed as inhibition of bacterial growth; assay type: functional
Escherichia coli [24] = assay: Anti-bacterial activity against Escherichia coli ATCC 25922 assessed as growth inhibition by measuring optical density measured at 1/4 time of MIC in presence of 1 times of MIC of norfloxacin by Checkerboard assay (reference value: 0.128); assay type: functional
Staphylococcus aureus [25] = assay: Anti-bacterial activity against Staphylococcus aureus ATCC 12600 assessed as inhibition of bacterial growth; assay type: functional; conditions: Staphylococcus aureus, ATCC 12600; read-out: MIC
Escherichia coli [26] = assay: Anti-bacterial activity against Escherichia coli ATCC 25922 assessed as growth inhibition by measuring optical density measured at 1/2 time of MIC in presence of 1/2 times of MIC of norfloxacin by Checkerboard assay (reference value: 0.124); assay type: functional
Acinetobacter baumannii [27] = assay: Anti-bacterial activity against Acinetobacter baumannii assessed as growth inhibition by measuring optical density measured at 1/4 time of MIC in presence of 1 times of MIC of norfloxacin by Checkerboard assay (reference value: 0.152); assay type: functional
Acinetobacter baumannii [28] = assay: Reduction of biofilm virulent factors in Acinetobacter baumannii assessed as decrease in extracellular polymeric substances (EPS) by measuring optical density at 490 nm at 1/4 times of MIC concentration by congo red binding assay (reference value: 0.188 to 0.192); assay type: functional
Escherichia coli [29] = assay: Reduction of biofilm virulent factors in Escherichia coli ATCC 25922 assessed as decrease in extracellular polymeric substances (EPS) by measuring optical density at 490 nm at 2 times of MIC concentration by congo red binding assay (reference value: 0.028 to 0.031); assay type: functional

CCCCc1nc(Cl)c(C2NC(=O)NC(CN3CCN(C(=O)/C(=N/OC)c4csc(N)n4)CC3)=C2C(=O)OCC)[nH]1 (stereo not drawn)
MIC (Klebsiella pneumoniae): 53 µM (≈ 32.2 µg/mL)
Activity (Escherichia coli [1]): 37.9%
MIC (Candida albicans [2]): 53 µM (≈ 32.2 µg/mL)
OD (Acinetobacter baumannii [3]): 0.119
fractional inhibitory concentration index (FICI) (Escherichia coli [4]): 0.75
Activity (Acinetobacter baumannii [5]): Dose-Dependent Effect
MIC (Staphylococcus aureus [6]): 13 µM (≈ 7.91 µg/mL)
Activity (Acinetobacter baumannii [7]): 70.2%
OD (Escherichia coli [8]): 0.052
OD (Escherichia coli [9]): 0.121
OD (Acinetobacter baumannii [10]): 0.125
inhibition (INH) (Acinetobacter baumannii [11]): 23.5%
OD (Acinetobacter baumannii [12]): 0.097
OD (Escherichia coli [13]): 0.051
OD (Acinetobacter baumannii [14]): 0.163
Activity (Escherichia coli [15]): Active
hemolysis at 3 h [16]: < 5%
OD (Acinetobacter baumannii [17]): 0.116
OD (Escherichia coli [18]): 0.051
MIC (Candida albicans [19]): 422 µM (≈ 257 µg/mL)
OD (Acinetobacter baumannii [20]): 0.117
OD (Escherichia coli [21]): 0.12
hemolysis at 6 h, 128 x MIC [22]: 0.8%
MIC (Pseudomonas aeruginosa): 26 µM (≈ 15.8 µg/mL)
Activity (Cell membrane): Active
OD (Acinetobacter baumannii [23]): 0.128
MIC (Enterococcus faecalis): 13 µM (≈ 7.91 µg/mL)
OD (Escherichia coli [24]): 0.112
MIC (Staphylococcus aureus [25]): 7 µM (≈ 4.26 µg/mL)
OD (Escherichia coli [26]): 0.107
OD (Acinetobacter baumannii [27]): 0.112
OD (Acinetobacter baumannii [28]): 0.178
OD (Escherichia coli [29]): 0.068
